Drawing on ChEMBL document CHEMBL1154903, “Cembranoids from the octocoral Sarcophyton ehrenbergi” (J Nat Prod, 2010), this text covers IC50 and Activity for three compounds.

The subject of test [1] is P388. As to the kind of experiment: Cytotoxicity against mouse P388 cells by MTT assay. The format is functional, cell-based. Background: Tetrazolium dyes change colour on reduction, which living cells bring about.
Test [2] has as its system HT-29. Description: Cytotoxicity against human HT-29 cells by MTT assay. The class given is functional, cell-based.
Test [3] concerns HEL. As to the kind of experiment: Cytotoxicity against HEL cells by MTT assay. Particulars: Homo sapiens. The format is cell-based.
Test [4] concerns Human betaherpesvirus 5. Description: Antiviral activity against human cytomegalovirus infected HEL cells after 7 days by. The class given is functional, organism-based. To be noted: Human betaherpesvirus 5, HEL, 168 h.
Test [5] deals with Salmonella enterica. As to the kind of experiment: Antibacterial activity against Salmonella enteritidis ATCC 13076 at 250 ug/ml by disk diffusion method. The format is functional, organism-based. To be noted: Salmonella enterica subsp. enterica serovar Enteritidis.

Activity calls are given as the source filed them. No cut-off for these calls is given here.

Usually IC50 stands for the concentration that gives 50% inhibition. Read a low IC50 as inhibition by little substance. In the case of `COC(C)(C)/C1=C/C=C(\C)CC[C@@H]2O[C@@]2(C)CC/C=C(/C(=O)O)CC1` [EHRENBEROXIDE A], the IC50 in test [1] is greater than 50 µg/mL; in test [2], greater than 50 µg/mL; in test [3] it was greater than 50 µg/mL; in test [4] it was 24.8 µM. In test [5], the outcome was inactive.
In the case of `C/C1=C\C=C(\C(C)C)CC[C@@]2(C)O[C@H](C1)C[C@@](C)(O)CC[C@@H]2O` [EHRENBEROXIDE B], the IC50 was greater than 50 µg/mL in test [1], greater than 50 µg/mL in test [2], greater than 50 µg/mL in test [3] and 4.7 µM in test [4]. Further, the outcome in test [5] was inactive.
For `COC(=O)/C1=C/CC/C(C)=C/[C@@H]2OCC(C)=C2CC[C@@]2(C)O[C@@H]2CC1` [LOBOPHYNIN C], the IC50 in test [1] was greater than 50 µg/mL; in test [2] it was greater than 50 µg/mL; in test [3], greater than 50 µg/mL; in test [4], 5.8 µM. For the same compound, in test [5], the result was inactive.
